Laboratory results reported in ChEMBL document CHEMBL1201862, “PubChem BioAssay data set” (2004).
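Protocol summary: plate cells (96-well), add compound at 5 concentrations, incubate 48 h, interpolate endpoints linearly. Abbreviation: GI50, concentration required for 50% inhibition of growth.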 Active and inactive are the calls of the source. Cut-off read from the data, not from the text of the source: active = GI50 up to about 1.1 µM and inactive = higher.

Columns and labels:
Experiment in all cases: NCI tumour cell line growth inhibition, 48 h
[1] = tested on: HT-29
[2] = tested on: UACC-257
[3] = tested on: 786-0
[4] = tested on: CAKI-1
[5] = tested on: SN12C
[6] = tested on: M14
[7] = tested on: SK-OV-3
[8] = tested on: UACC-62
[9] = tested on: CCRF-CEM
[10] = tested on: RPMI-8226
[11] = tested on: MCF7
[12] = tested on: HOP-62
[13] = tested on: HCC 2998
[14] = tested on: SF-268
[15] = tested on: K562
[16] = tested on: SW-620
[17] = tested on: RXF 393
[18] = tested on: SF-295
[19] = tested on: NCI-H23
[20] = tested on: MDA-N
[21] = tested on: IGROV-1
[22] = tested on: OVCAR-4
[23] = tested on: EKVX
[24] = tested on: MDA-MB-435
[25] = tested on: PC-3
[26] = tested on: OVCAR-8
[27] = tested on: MOLT-4
[28] = tested on: A549
[29] = tested on: MDA-MB-231
[30] = tested on: KM12
[31] = tested on: DU-145
[32] = tested on: LOX IMVI
[33] = tested on: TK-10
[34] = tested on: SNB-75
[35] = tested on: SK-MEL-28
[36] = tested on: COLO 205
[37] = tested on: T47D
[38] = tested on: HL-60
[39] = tested on: HCT-15
[40] = tested on: Malme-3M
[41] = tested on: SR
[42] = tested on: SK-MEL-5
[43] = tested on: HOP-92
[44] = tested on: OVCAR-5
[45] = tested on: UO-31
[46] = tested on: HCT-116
[47] = tested on: NCI/ADR-RES
[48] = tested on: NCI-H460
[49] = tested on: SK-MEL-2
[50] = tested on: SNB-19
[51] = tested on: A498
[52] = tested on: OVCAR-3

Structure (SMILES): Fc1ccc(-c2sc(-c3ccsc3)cc2Cc2ccsc2)cc1
- GI50 [1]: > 10 µM (inactive)
- GI50 [2]: > 10 µM (inactive)
- GI50 [3]: > 10 µM (inactive)
- GI50 [4]: > 10 µM (inactive)
- GI50 [5]: > 10 µM (inactive)
- GI50 [6]: > 10 µM (inactive)
- GI50 [7]: > 10 µM (inactive)
- GI50 [8]: > 10 µM (inactive)
- GI50 [9]: > 10 µM (inactive)
- GI50 [10]: > 10 µM (inactive)
- GI50 [11]: > 10 µM (inactive)
- GI50 [12]: > 10 µM (inactive)
- GI50 [13]: > 10 µM (inactive)
- GI50 [14]: > 10 µM (inactive)
- GI50 [15]: > 10 µM (inactive)
- GI50 [16]: > 10 µM (inactive)
- GI50 [17]: > 10 µM (inactive)
- GI50 [18]: > 10 µM (inactive)
- GI50 [19]: > 10 µM (inactive)
- GI50 [20]: > 10 µM (inactive)
- GI50 [21]: > 10 µM (inactive)
- GI50 [22]: > 10 µM (inactive)
- GI50 [23]: > 10 µM (inactive)
- GI50 [24]: > 10 µM (inactive)
- GI50 [25]: > 10 µM (inactive)
- GI50 [26]: > 10 µM (inactive)
- GI50 [27]: > 10 µM (inactive)
- GI50 [28]: > 10 µM (inactive)
- GI50 [29]: > 10 µM (inactive)
- GI50 [30]: > 10 µM (inactive)
- GI50 [31]: > 10 µM (inactive)
- GI50 [32]: > 10 µM (inactive)
- GI50 [33]: > 10 µM (inactive)
- GI50 [34]: > 10 µM (inactive)
- GI50 [35]: > 10 µM (inactive)
- GI50 [36]: > 10 µM (inactive)
- GI50 [37]: > 10 µM (inactive)
- GI50 [38]: > 10 µM (inactive)
- GI50 [39]: > 10 µM
- GI50 [40]: > 10 µM (inactive)
- GI50 [41]: > 10 µM (inactive)
- GI50 [42]: > 10 µM (inactive)
- GI50 [43]: > 10 µM (inactive)

Structure (SMILES): COc1cc(/C=C/c2ccc(S(N)(=O)=O)cc2)cc(OC)c1
- GI50 [2]: 20.3 µM (inactive)
- GI50 [44]: 39.8 µM (inactive)
- GI50 [3]: 21.5 µM (inactive)
- GI50 [5]: 22.6 µM (inactive)
- GI50 [6]: 51.2 µM (inactive)
- GI50 [7]: 24.5 µM (inactive)
- GI50 [45]: 21.9 µM (inactive)
- GI50 [11]: 24.6 µM (inactive)
- GI50 [12]: 28.9 µM (inactive)
- GI50 [13]: 19.7 µM (inactive)
- GI50 [46]: 14.5 µM (inactive)
- GI50 [17]: 13.1 µM (inactive)
- GI50 [18]: 22.6 µM (inactive)
- GI50 [20]: 20.6 µM (inactive)
- GI50 [23]: 22.4 µM (inactive)
- GI50 [25]: 19.5 µM (inactive)
- GI50 [47]: 23.8 µM (inactive)
- GI50 [48]: 17.7 µM (inactive)
- GI50 [29]: 16.9 µM (inactive)
- GI50 [31]: 32.7 µM (inactive)
- GI50 [49]: 18.7 µM (inactive)
- GI50 [33]: 22.4 µM (inactive)
- GI50 [34]: 14.1 µM (inactive)
- GI50 [50]: 39.1 µM (inactive)
- GI50 [35]: 23.9 µM (inactive)
- GI50 [51]: 18.2 µM (inactive)
- GI50 [36]: 15.9 µM (inactive)
- GI50 [37]: 8.18 µM (inactive)
- GI50 [40]: 14.8 µM (inactive)
- GI50 [42]: 16.2 µM (inactive)
- GI50 [52]: 16.5 µM (inactive)
